Measured values: ChEMBL document CHEMBL3621167, “Therapeutic Potential of 5-HT6 Receptor Agonists” (J Med Chem, 2015)

Columns and labels:
Homo sapiens [1] = species: Homo sapiens; assay: Selectivity ratio of Ki for human 5-HT1A receptor to Ki for human 5-HT6 receptor
Homo sapiens [2] = species: Homo sapiens; assay: Selectivity ratio of Ki for human 5-HT7 receptor to Ki for human 5-HT6 receptor
Homo sapiens [3] = species: Homo sapiens; assay: Selectivity ratio of Ki for human 5-HT5A receptor to Ki for human 5-HT6 receptor
Homo sapiens [4] = species: Homo sapiens; assay: Selectivity ratio of Ki for human 5-HT1B receptor to Ki for human 5-HT6 receptor
Homo sapiens [5] = species: Homo sapiens; assay: Selectivity ratio of Ki for human 5-HT1F receptor to Ki for human 5-HT6 receptor
Homo sapiens [6] = species: Homo sapiens; assay: Selectivity ratio of Ki for human 5-HT1D receptor to Ki for human 5-HT6 receptor
[7] = molecular target: 5-hydroxytryptamine receptor 7 (Homo sapiens, UniProt P34969); assay: Binding affinity to 5-HT7 receptor (unknown origin)
[8] = molecular target: 5-hydroxytryptamine receptor 6 (Homo sapiens, UniProt P50406); assay: Agonist activity at 5-HT6 receptor (unknown origin)
[9] = Selectivity ratio of Ki for 5-HT2B receptor (unknown origin) to Ki for rat 5-HT6 receptor
[10] = molecular target: T1, Adrenergic receptor alpha-1 (Rattus norvegicus, UniProt P15823+P23944+P43140); assay: Binding affinity to rat alpha1 adrenergic receptor
T1 sequence (P15823 whole entry): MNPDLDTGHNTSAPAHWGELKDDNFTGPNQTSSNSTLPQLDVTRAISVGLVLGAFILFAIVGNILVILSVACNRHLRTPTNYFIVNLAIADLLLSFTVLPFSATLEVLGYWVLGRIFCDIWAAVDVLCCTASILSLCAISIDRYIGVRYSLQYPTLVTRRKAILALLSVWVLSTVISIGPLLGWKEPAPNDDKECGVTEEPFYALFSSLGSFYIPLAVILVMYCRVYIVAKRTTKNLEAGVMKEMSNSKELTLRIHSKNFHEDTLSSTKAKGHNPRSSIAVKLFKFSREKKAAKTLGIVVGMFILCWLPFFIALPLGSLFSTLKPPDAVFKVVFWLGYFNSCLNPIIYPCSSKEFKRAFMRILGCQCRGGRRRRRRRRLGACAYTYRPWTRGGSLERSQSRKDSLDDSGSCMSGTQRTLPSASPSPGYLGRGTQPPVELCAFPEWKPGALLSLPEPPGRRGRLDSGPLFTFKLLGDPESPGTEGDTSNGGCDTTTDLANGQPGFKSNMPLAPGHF
T1 sequence (P23944 whole entry): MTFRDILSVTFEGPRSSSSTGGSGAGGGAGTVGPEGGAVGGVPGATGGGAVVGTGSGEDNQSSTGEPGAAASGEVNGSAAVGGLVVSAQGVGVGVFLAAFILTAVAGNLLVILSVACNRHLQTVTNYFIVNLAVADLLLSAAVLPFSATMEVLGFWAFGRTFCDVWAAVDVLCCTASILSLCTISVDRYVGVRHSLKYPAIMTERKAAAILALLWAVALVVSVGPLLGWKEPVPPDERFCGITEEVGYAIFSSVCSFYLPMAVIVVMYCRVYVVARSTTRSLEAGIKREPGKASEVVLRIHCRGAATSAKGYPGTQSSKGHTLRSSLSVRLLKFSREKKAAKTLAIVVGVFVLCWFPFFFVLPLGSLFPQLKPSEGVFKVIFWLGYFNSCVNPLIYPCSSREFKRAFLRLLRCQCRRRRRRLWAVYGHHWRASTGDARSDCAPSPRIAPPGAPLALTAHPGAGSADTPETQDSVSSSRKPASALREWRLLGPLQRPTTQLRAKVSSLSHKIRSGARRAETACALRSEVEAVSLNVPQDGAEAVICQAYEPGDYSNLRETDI
T1 sequence (P43140 whole entry): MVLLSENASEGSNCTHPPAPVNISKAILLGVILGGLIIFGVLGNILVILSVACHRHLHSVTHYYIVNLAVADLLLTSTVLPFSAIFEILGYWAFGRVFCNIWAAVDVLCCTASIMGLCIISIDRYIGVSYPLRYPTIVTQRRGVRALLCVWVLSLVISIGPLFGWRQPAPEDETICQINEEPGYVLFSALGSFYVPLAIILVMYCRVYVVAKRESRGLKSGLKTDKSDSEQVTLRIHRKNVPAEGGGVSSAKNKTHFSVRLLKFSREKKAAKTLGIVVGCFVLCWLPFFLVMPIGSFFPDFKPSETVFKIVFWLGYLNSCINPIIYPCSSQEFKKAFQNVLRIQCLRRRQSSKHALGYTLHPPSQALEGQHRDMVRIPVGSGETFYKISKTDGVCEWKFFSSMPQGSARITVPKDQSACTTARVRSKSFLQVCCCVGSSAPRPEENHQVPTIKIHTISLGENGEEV

[11] = molecular target: T2, Adrenergic receptor alpha-2 (Homo sapiens, UniProt P08913+P18825+P18089); assay: Binding affinity to human recombinant alpha2 adrenergic receptor; assay type: protein assay
T2 sequence (P08913 whole entry): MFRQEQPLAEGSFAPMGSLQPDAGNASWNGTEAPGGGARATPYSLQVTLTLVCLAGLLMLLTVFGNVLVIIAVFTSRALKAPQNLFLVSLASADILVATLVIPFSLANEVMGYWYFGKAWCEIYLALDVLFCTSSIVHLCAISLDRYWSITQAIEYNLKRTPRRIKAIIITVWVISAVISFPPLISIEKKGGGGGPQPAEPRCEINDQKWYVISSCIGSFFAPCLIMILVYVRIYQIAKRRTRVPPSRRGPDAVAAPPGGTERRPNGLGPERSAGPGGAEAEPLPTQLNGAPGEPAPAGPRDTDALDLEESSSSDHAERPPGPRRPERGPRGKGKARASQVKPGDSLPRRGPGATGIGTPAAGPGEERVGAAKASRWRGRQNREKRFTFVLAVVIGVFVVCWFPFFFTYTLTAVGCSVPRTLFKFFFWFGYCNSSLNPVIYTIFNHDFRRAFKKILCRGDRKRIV
T2 sequence (P18825 whole entry): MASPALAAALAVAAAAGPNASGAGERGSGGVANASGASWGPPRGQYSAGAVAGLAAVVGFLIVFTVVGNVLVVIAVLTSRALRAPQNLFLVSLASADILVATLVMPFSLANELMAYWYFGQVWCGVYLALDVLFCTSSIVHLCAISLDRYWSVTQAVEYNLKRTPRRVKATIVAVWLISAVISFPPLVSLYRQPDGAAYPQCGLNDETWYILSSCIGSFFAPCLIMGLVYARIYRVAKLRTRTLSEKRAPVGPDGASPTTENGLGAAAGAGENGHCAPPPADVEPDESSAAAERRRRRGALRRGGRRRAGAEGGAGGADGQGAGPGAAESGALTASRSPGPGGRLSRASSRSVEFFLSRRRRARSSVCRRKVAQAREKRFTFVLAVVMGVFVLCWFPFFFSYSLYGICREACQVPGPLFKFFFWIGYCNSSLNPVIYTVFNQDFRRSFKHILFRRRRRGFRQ
T2 sequence (P18089 whole entry): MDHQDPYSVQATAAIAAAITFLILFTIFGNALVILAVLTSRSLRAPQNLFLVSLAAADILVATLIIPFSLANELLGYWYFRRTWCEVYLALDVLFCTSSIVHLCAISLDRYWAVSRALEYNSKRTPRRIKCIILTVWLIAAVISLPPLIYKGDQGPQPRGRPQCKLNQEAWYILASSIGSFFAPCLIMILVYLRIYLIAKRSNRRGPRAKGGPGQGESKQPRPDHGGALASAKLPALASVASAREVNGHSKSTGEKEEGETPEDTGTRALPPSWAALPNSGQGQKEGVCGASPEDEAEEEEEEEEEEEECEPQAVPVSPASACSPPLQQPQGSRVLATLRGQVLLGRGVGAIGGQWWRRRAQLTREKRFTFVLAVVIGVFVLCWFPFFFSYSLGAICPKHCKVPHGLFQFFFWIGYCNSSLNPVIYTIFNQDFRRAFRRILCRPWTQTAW

[12] = molecular target: T3, Adrenergic receptor alpha-2 (Rattus norvegicus, UniProt P22086+P19328+P22909); assay: Binding affinity to rat alpha2 adrenergic receptor
T3 sequence (P22086 whole entry): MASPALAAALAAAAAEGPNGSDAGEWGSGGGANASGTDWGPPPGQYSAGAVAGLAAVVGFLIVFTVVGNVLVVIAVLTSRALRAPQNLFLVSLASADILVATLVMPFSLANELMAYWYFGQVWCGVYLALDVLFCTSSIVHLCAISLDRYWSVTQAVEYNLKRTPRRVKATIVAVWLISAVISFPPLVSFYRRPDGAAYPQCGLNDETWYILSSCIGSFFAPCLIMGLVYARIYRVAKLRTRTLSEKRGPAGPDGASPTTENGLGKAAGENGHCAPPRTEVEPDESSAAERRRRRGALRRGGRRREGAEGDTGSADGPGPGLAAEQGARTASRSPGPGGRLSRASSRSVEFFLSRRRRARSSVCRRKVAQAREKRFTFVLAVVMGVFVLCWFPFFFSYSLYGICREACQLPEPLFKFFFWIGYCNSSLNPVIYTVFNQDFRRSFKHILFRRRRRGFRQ
T3 sequence (P19328 whole entry): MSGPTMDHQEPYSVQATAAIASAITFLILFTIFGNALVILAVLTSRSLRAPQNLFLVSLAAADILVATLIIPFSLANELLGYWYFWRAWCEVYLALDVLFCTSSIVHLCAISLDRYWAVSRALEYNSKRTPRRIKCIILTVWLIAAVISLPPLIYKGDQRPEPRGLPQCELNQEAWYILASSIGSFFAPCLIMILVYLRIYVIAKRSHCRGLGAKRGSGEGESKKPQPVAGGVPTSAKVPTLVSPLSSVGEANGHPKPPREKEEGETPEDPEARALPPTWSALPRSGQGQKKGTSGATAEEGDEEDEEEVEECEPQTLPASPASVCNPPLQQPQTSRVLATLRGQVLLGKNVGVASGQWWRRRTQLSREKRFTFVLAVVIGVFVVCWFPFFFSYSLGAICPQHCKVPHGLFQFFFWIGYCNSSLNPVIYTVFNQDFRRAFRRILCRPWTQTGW
T3 sequence (P22909 whole entry): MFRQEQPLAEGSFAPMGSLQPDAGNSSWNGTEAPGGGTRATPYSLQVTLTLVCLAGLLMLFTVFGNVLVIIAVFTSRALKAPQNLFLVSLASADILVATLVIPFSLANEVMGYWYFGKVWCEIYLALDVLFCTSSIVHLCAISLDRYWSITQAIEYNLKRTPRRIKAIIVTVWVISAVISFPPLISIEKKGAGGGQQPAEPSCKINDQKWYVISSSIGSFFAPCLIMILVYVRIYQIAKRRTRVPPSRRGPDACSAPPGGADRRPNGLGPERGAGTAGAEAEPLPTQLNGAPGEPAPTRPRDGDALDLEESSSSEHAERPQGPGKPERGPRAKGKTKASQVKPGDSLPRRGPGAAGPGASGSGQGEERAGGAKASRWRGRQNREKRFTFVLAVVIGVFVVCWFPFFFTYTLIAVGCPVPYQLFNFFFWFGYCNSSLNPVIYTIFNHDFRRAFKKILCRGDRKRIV

[13] = Selectivity ratio of Ki for 5-HT7 receptor (unknown origin) to Ki for rat 5-HT6 receptor
[14] = molecular target: 5-hydroxytryptamine receptor 6 (Rattus norvegicus, UniProt P31388); assay: Displacement of [3H] lysergic acid diethylamide from rat 5-HT6 receptor transfected in HEK293 cells after 60 mins by scintillation counter; assay type: cell-based
[15] = molecular target: 5-hydroxytryptamine receptor 2B (Homo sapiens, UniProt P41595); assay: Binding affinity to 5-HT2B receptor (unknown origin)
Sequence of 5-hydroxytryptamine receptor 2B (P41595 whole entry): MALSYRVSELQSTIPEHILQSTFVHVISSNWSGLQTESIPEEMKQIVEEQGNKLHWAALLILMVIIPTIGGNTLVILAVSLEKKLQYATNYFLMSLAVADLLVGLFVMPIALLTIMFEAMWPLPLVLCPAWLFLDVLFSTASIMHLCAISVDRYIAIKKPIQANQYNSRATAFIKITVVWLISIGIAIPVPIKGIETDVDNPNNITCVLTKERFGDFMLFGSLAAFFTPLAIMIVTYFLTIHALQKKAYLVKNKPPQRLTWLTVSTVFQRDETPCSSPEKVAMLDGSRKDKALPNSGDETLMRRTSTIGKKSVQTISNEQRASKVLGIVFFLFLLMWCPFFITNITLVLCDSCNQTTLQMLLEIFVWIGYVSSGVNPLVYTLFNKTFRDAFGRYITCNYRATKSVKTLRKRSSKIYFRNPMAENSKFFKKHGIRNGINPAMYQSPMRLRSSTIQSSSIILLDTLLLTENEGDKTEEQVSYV

Sequence of 5-hydroxytryptamine receptor 6 (Homo sapiens, UniProt P50406) (P50406 whole entry): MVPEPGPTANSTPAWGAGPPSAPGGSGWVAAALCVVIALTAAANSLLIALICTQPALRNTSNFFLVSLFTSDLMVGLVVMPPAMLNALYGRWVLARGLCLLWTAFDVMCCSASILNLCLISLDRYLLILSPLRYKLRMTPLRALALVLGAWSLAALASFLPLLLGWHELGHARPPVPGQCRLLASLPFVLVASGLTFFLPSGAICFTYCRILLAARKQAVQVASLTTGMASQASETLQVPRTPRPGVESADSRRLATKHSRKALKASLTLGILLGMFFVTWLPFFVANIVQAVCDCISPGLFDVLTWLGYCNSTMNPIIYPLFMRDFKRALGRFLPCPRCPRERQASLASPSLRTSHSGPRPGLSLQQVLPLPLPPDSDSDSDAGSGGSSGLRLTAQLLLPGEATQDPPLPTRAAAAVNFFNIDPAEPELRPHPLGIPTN
Sequence of 5-hydroxytryptamine receptor 7 (P34969 whole entry): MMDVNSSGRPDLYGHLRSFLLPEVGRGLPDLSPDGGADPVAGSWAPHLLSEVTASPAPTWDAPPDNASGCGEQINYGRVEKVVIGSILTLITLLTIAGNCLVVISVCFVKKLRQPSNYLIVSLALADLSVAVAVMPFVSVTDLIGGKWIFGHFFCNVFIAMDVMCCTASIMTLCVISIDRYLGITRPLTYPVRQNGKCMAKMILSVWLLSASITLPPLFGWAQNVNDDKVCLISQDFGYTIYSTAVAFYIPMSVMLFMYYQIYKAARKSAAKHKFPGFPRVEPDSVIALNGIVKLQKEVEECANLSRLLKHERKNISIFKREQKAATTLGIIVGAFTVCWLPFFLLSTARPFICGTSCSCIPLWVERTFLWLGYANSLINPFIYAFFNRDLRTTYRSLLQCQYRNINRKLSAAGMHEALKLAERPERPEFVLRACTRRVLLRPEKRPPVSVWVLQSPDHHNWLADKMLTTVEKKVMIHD
Sequence of 5-hydroxytryptamine receptor 6 (Rattus norvegicus, UniProt P31388) (P31388 whole entry): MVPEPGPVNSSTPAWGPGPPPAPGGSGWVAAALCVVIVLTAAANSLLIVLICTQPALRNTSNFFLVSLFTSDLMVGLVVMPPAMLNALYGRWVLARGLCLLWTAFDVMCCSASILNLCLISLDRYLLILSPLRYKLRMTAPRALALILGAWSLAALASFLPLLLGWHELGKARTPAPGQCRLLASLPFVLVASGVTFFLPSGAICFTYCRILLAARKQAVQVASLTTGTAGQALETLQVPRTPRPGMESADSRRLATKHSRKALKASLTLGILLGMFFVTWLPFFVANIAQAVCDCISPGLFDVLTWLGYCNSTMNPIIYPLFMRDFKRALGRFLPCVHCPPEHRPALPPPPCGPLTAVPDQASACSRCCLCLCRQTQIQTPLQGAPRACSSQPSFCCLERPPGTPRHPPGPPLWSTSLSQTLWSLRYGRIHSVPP

SMILES	Ratio Ki (Homo sapiens [1])	Ratio Ki (Homo sapiens [2])	Ratio Ki (Homo sapiens [3])	Ratio Ki (Homo sapiens [4])	Ratio Ki (Homo sapiens [5])	Ratio Ki (Homo sapiens [6])	Ki [7] [nM]	EC50 [8] [nM]	Ratio Ki [9]	Ki [10] [nM]	Ki [11] [nM]	Ki [12] [nM]	Ratio Ki [13]	Ki [14] [nM]	Ki [15] [nM]
CN(C)CCc1cn(S(=O)(=O)c2ccccc2)c2ccccc12	> 100	> 100	> 100	> 100	> 100	> 100									
Cc1[nH]c2ccc(Cl)cc2c1CCN(C)C							290	44.8	8	300	300	300	10	28.8	245
